This is an account of results in publication PMC4505066, “Insights into the Recruitment of Class IIa Histone Deacetylases (HDACs) to the SMRT/NCoR Transcriptional Repression Complex” (The Journal of Biological Chemistry, 2015).

One may read the Kd as the concentration at which binding is half-saturated.

Experiment [1] deals with T1, HDAC4 catalytic domain (wild type) (Homo sapiens, UniProt P56524).
T1 construct: we purified the recombinant catalytic domains of HDACs 4, 5, 7, and 9; hexa-histidine tag (N, cleaved yes); S-tag (N, cleaved yes); made in house; host or cells: Escherichia coli Rosetta (pET30)
T1 sequence (P56524 655-1084 limits assumed): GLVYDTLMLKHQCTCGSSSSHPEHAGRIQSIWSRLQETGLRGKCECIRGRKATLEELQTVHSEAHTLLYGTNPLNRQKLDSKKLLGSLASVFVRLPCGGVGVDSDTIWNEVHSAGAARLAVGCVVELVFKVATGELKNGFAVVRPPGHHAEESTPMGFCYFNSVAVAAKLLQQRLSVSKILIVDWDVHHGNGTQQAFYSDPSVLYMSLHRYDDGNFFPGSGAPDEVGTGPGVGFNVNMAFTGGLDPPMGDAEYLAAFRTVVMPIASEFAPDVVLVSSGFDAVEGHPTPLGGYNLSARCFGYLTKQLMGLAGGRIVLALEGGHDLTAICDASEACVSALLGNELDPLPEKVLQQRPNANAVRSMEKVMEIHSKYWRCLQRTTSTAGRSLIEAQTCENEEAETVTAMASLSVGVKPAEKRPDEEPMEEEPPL
The experiment in a line: Fluorescence anisotropy binding of BODIPY-TMR labeled GSI motif peptides to HDAC4. (In general: In fluorescence polarisation assays a small probe gives low polarisation when free and higher when bound to something large.)
Procedure: Immediately prior to the fluorescence anisotropy assays the HDACs were concentrated and buffer exchanged into 1× PBS, 0.5 mM Tris(2-carboxyethyl)-phosphine and the protein concentration was determined by A280 in 6 M guanidine HCl. Protein was dispensed into 96-well black plates prior to a 2-fold serial dilution in reaction buffer (1× PBS, 0.01% Triton X-100, 0.1 mg/ml of BSA). Inhibitors were preincubated with HDACs for 30 min at a 2:1 ratio before serial dilution. Labeled peptide was added to a final concentration of 1 μM in a 50-μl reaction volume. […] Data were analyzed using GraphPad Prism, assuming non-linear fit with one-site binding to fulfill the equation y = Bmax × x/(Kd + x).

Experiment [2] deals with T2, H976Y gain-of-function (GOF) HDAC4 catalytic domain (Homo sapiens, UniProt P56524, H976Y).
T2 construct: the H976Y gain-of-function (GOF) HDAC4 catalytic domain; hexa-histidine tag (N, cleaved yes); S-tag (N, cleaved yes); made in house; host or cells: Escherichia coli Rosetta (pET30)
T2 sequence (P56524 655-1084 H976Y limits assumed): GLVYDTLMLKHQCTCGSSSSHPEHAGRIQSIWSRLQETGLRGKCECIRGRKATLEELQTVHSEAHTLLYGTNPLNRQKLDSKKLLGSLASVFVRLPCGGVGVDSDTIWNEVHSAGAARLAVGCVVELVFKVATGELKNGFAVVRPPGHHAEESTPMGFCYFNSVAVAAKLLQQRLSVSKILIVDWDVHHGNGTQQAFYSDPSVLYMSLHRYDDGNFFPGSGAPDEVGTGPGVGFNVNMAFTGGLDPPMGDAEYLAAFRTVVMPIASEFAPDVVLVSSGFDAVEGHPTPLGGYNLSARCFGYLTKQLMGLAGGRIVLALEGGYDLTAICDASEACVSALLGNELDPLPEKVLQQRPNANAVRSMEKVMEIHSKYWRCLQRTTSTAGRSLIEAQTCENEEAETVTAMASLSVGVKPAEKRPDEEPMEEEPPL
The experiment can be described thus: Fluorescence anisotropy binding of GSI peptide to H976Y gain-of-function HDAC4.
Procedure: Peptides were coupled to BODIPY-TMR by incubation in 18 MΩ water at a 5:1 molar ratio for 2 h at room temperature with continual stirring. Following incubation, buffer was exchanged into 1× PBS, 0.5 mM Tris(2-carboxyethyl)phosphine using a PD-10 column (GE Healthcare). Labeled peptides were concentrated using an Amicon centrifugal concentrator. Immediately prior to the fluorescence anisotropy assays the HDACs were concentrated and buffer exchanged into 1× PBS, 0.5 mM Tris(2-carboxyethyl)-phosphine and the protein concentration was determined by A280 in 6 M guanidine HCl. Protein was dispensed into 96-well black plates prior to a 2-fold serial dilution in reaction buffer (1× PBS, 0.01% Triton X-100, 0.1 mg/ml of BSA). Inhibitors were preincubated with HDACs for 30 min at a 2:1 ratio before serial dilution. Labeled peptide was added to a final concentration of 1 μM in a 50-μl reaction volume. […] Data were analyzed using GraphPad Prism, assuming non-linear fit with one-site binding to fulfill the equation y = Bmax × x/(Kd + x).

For experiment [3], the target named is T3, HDAC5 catalytic domain (Homo sapiens, UniProt Q9UQL6).
T3 construct: we purified the recombinant catalytic domains of HDACs 4, 5, 7, and 9; hexa-histidine tag (N, cleaved yes); S-tag (N, cleaved yes); made in house; host or cells: Escherichia coli Rosetta (as for HDAC4)
T3 sequence (Q9UQL6 684-1028 limits assumed, species assumed): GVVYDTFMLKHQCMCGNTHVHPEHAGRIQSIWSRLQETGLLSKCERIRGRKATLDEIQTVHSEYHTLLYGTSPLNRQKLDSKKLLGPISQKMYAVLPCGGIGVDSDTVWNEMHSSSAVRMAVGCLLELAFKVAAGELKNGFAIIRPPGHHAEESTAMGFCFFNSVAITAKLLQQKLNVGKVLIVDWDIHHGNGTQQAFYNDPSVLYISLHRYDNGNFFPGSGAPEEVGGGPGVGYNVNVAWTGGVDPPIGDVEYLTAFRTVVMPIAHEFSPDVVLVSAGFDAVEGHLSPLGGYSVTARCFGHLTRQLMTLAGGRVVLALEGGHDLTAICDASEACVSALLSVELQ
The experiment in a line: Fluorescence anisotropy binding of labeled GSI peptide to HDAC5. As to conditions: Fig. 2B, labeled wild type peptide 1 μM. As for the experimental part:
(§1) Wild type peptide was obtained from Biomatik. Mutant peptides were synthesized in house using a CEM microwave peptide synthesizer. Peptides for use in fluorescence anisotropy assays were synthesized with an extra N-terminal cysteine.
(§2) Peptides were coupled to BODIPY-TMR by incubation in 18 MΩ water at a 5:1 molar ratio for 2 h at room temperature with continual stirring. Following incubation, buffer was exchanged into 1× PBS, 0.5 mM Tris(2-carboxyethyl)phosphine using a PD-10 column (GE Healthcare). Labeled peptides were concentrated using an Amicon centrifugal concentrator. Immediately prior to the fluorescence anisotropy assays the HDACs were concentrated and buffer exchanged into 1× PBS, 0.5 mM Tris(2-carboxyethyl)-phosphine and the protein concentration was determined by A280 in 6 M guanidine HCl. Protein was dispensed into 96-well black plates prior to a 2-fold serial dilution in reaction buffer (1× PBS, 0.01% Triton X-100, 0.1 mg/ml of BSA). Inhibitors were preincubated with HDACs for 30 min at a 2:1 ratio before serial dilution. Labeled peptide was added to a final concentration of 1 μM in a 50-μl reaction volume. Measurements were recorded using an excitation wavelength of 531 nm and emission wavelength of 595 nm. Data were analyzed using GraphPad Prism, assuming non-linear fit with one-site binding to fulfill the equation y = Bmax × x/(Kd + x).

For experiment [4], the target named is T4, HDAC7 catalytic domain (Homo sapiens, UniProt Q8WUI4).
T4 construct: we purified the recombinant catalytic domains of HDACs 4, 5, 7, and 9; hexa-histidine tag (N, cleaved yes); S-tag (N, cleaved yes); made in house; host or cells: Escherichia coli Rosetta (as for HDAC4)
T4 sequence (Q8WUI4 512-865 limits assumed): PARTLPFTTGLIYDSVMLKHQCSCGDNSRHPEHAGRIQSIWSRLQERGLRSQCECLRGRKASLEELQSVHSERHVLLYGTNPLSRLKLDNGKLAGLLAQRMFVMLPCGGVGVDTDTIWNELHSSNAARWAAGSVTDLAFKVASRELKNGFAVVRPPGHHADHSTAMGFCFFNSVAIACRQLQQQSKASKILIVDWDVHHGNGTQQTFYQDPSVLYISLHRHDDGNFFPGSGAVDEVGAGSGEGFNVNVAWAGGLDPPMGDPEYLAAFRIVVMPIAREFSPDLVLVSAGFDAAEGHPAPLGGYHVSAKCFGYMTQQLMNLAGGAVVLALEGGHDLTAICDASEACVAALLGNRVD
The experiment can be described thus: Fluorescence anisotropy binding of labeled GSI peptide to HDAC7. Particulars: Fig. 2B, labeled wild type peptide 1 μM. As to the method: as §1, §2

In experiment [5] the target is T5, HDAC9 catalytic domain (Homo sapiens, UniProt Q9UKV0).
T5 construct: we purified the recombinant catalytic domains of HDACs 4, 5, 7, and 9; hexa-histidine tag (N, cleaved yes); S-tag (N, cleaved yes); made in house; host or cells: Escherichia coli Rosetta (as for HDAC4)
T5 sequence (Q9UKV0 631-978 limits assumed, species assumed): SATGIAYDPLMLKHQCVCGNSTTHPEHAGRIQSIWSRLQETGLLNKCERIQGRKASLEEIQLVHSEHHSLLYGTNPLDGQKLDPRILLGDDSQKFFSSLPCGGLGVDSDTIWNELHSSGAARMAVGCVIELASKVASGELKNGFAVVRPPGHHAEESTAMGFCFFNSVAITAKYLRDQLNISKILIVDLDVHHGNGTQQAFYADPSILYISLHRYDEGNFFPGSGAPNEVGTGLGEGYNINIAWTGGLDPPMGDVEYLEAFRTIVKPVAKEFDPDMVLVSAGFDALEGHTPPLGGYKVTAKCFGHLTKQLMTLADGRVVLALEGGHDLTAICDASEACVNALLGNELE
The experiment in a line: Fluorescence anisotropy binding of labeled GSI peptide to HDAC9. As to conditions: Fig. 2B, labeled wild type peptide 1 μM. As for the experimental part:
as §1, §2

Experiment [6] concerns the target T6, full-length HDAC8 (Homo sapiens, UniProt Q9BY41).
T6 construct: along with full-length HDAC8 as an intrinsically active class I HDAC control; made in house
T6 sequence (Q9BY41 1-377): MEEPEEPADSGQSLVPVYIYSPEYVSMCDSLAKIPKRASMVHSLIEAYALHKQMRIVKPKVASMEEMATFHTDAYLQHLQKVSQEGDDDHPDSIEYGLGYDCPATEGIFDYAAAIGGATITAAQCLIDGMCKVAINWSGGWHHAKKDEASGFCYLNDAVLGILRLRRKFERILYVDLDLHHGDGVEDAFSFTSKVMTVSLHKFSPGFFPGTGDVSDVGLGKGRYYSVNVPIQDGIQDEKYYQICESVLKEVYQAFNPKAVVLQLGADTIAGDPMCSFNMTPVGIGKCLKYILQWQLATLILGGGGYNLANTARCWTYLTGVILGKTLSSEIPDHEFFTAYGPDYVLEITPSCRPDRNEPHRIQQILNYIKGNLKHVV
The experiment in a line: Fluorescence anisotropy binding of labeled GSI peptide to HDAC8. As to conditions: Fig. 2B, class I HDAC8 control, labeled wild type peptide 1 μM. As for the experimental part:
as §1, §2

In experiment [7] the target is T7, HDAC4cd C667A (Homo sapiens, UniProt P56524, C667A).
T7 construct: we purified the recombinant catalytic domains of HDACs 4, 5, 7, and 9; hexa-histidine tag (N, cleaved yes); S-tag (N, cleaved yes); made in house; host or cells: Escherichia coli Rosetta (pET30)
T7 sequence (P56524 655-1084 C667A limits assumed): as the sequence (P56524 655-1084 limits assumed) above, with C13A counted along it
The experiment in a line: Fluorescence anisotropy binding of GSI peptide to HDAC4 C667A mutant. Particulars: Fig. 3C, zinc chelating residue mutant. As to the method: as §2

Experiment [8] concerns the target T8, HDAC4cd H675A (Homo sapiens, UniProt P56524, H675A).
T8 construct: we purified the recombinant catalytic domains of HDACs 4, 5, 7, and 9; hexa-histidine tag (N, cleaved yes); S-tag (N, cleaved yes); made in house; host or cells: Escherichia coli Rosetta (pET30)
The experiment can be described thus: Fluorescence anisotropy binding of GSI peptide to HDAC4 H675A mutant. Particulars: Fig. 3C, zinc chelating residue mutant. As to the method:
as §2

In experiment [9] the target is T9, HDAC4cd C751A (Homo sapiens, UniProt P56524, C751A).
T9 construct: we purified the recombinant catalytic domains of HDACs 4, 5, 7, and 9; hexa-histidine tag (N, cleaved yes); S-tag (N, cleaved yes); made in house; host or cells: Escherichia coli Rosetta (pET30)
T9 sequence (P56524 655-1084 C751A limits assumed): as the sequence (P56524 655-1084 limits assumed) above, with C97A counted along it
The experiment in a line: Fluorescence anisotropy binding of GSI peptide to HDAC4 C751A mutant. As to conditions: Fig. 3C, zinc chelating residue mutant. As to the method:
as §2

The mark [10] stands for this setting: Fig. 2A, fluorescence anisotropy, BODIPY-TMR labeled peptide 1 μM, HDAC4 2-fold serial dilution, one-site binding fit, read-out: Kd.

Read-outs that look alike come from different tables or passages of the source. No end group written: not given here.

T8 sequence (P56524 655-1084 H675A limits assumed): as the sequence (P56524 655-1084 limits assumed) above, with H21A counted along it

With `O=C(CCCCCCC(=O)Nc1ccccc1)NO` [SAHA, suberoylanilide hydroxamic acid, reference compound], the “maximum polarization of GSI peptide binding in the presence of inhibitor” value in [1] (wild type HDAC4, 2-fold molar excess of inhibitor) is given as “lower maximum polarization”.
Turning to `CCCC(=O)[O-].[Na+]` [Sodium Butyrate, sodium butyrate, reference compound], the Kd stood at 4.61 ± 0.26 µM in experiment [1] (Fig. 4A, wild type HDAC4 catalytic domain preincubated 30 min with 2-fold molar excess of the named inhibitor, Kd is that of the labeled GSI peptide, read-out: WT Kd of the GSI peptide in the presence of the HDAC inhibitor) and 2530 ± 240 nM in experiment [2] (Fig. 4A, H976Y GOF HDAC4 catalytic domain preincubated 30 min with 2-fold molar excess of the named inhibitor, Kd is that of the labeled GSI peptide, read-out: GOF Kd of the GSI peptide in the presence of the HDAC inhibitor).
In the case of `CCCC(CCC)C(=O)O` [Valproic Acid, valproic acid, reference compound], the Kd in experiment [1] (read-out: WT Kd of the GSI peptide in the presence of the HDAC inhibitor) amounted to 3.38 ± 0.24 µM; in experiment [2] (read-out: GOF Kd of the GSI peptide in the presence of the HDAC inhibitor), 2620 ± 180 nM.
Turning to `CC[C@H](C)[C@H](NC(=O)[C@H](CO)NC(=O)CNC(=O)[C@H](CCC(=O)O)NC(=O)[C@H](CCCCN)NC(=O)[C@H](CC(C)C)NC(=O)[C@@H]1CCCN1C(=O)[C@H](CCCNC(=N)N)NC(=O)[C@@H]1CCCN1C(=O)[C@@H](N)CS)C(=O)N[C@H](C(=O)N[C@@H](CCC(N)=O)C(=O)NCC(=O)N[C@H](C(=O)N1CCC[C@H]1C(=O)N[C@@H](CC(C)C)C(=O)N[C@@H](CCCCN)C(=O)N[C@@H](Cc1ccc(O)cc1)C(=O)N[C@@H](CC(=O)O)C(=O)N[C@H](C(=O)NCC(=O)O)[C@@H](C)O)[C@@H](C)O)[C@@H](C)O` [WT], the Kd in experiment [1] (Fig. 4A, wild type HDAC4 catalytic domain, DMSO, read-out: WT Kd) was 3.22 ± 0.2 µM; in experiment [1] (Fig. 4A, wild type HDAC4 catalytic domain, No Inhibitor, read-out: WT Kd), 4.73 ± 0.31 µM; in [3], 4.24 ± 0.59 µM; in experiment [4], 4.44 ± 0.44 µM; in experiment [5] it was 8.34 ± 1.07 µM; in experiment [6] it was “no interaction”. Moreover, the Kd in [6] (read-out: Kd) is above 1 mM; in [7], above 1 mM; in [8], above 1 mM; in experiment [9], above 1 mM; in experiment [2] (Fig. 4A, H976Y GOF HDAC4 catalytic domain, DMSO, read-out: GOF Kd), 2940 ± 150 nM; in [2] (Fig. 4A, H976Y GOF HDAC4 catalytic domain, No Inhibitor, read-out: GOF Kd) it was 1760 ± 180 nM.
Turning to CPRPLKEGSIAQGTPLKYDTG [T4A], the Kd in [1] (setting [10]) came out at 14.4 ± 4.26 µM.
The same measure, in the same setting: with CPRPLKEGSITAGTPLKYDTG [Q5A] the figure was 5.47 ± 0.57 µM.
As to CPRPLKEGSITEGTPLKYDTG [Q5E], the Kd in [1] (setting [10]) is 17.7 ± 1.4 µM.
On the same count and under the same terms, in the case of CPRPLKEGSITQGTALKYDTG [P8A] it was 47 ± 12.3 µM; in that of CPRPLKEGSIVQGTPLKYDTG [T4V], 16.9 ± 8.73 µM.
